Test results published in ChEMBL document CHEMBL1140641, “Novel ebselen-porphyrin conjugates: synthesis and nucleic acid interaction study” (Bioorg Med Chem Lett, 2007).

Legend:
Assay type in all cases: nucleic-acid assay
Design in all cases: scale not given: the % may be the effect or the level left
Conditions in all cases: Escherichia coli
Nucleic Acid [1] = assay: DNA photocleavage activity assessed as pBluescript form II levels at 20 uM by plasmid DNA relaxation assay
Nucleic Acid [2] = assay: DNA photocleavage activity assessed as pBluescript form II levels at 1 uM by plasmid DNA relaxation assay
Nucleic Acid [3] = assay: DNA photocleavage activity assessed as pBluescript form II levels at 10 uM by plasmid DNA relaxation assay
Nucleic Acid [4] = assay: DNA photocleavage activity assessed as pBluescript form II levels at 5 uM by plasmid DNA relaxation assay

In the case of `O=c1c2ccccc2[se]n1-c1ccc(-c2c3nc(c(-c4ccccc4)c4ccc([nH]4)c(-c4ccccc4)c4nc(c(-c5ccccc5)c5ccc2[nH]5)C=C4)C=C3)cc1`, the Activity (Nucleic Acid [1]) is reported as 21%, the Activity (Nucleic Acid [2]) is reported as 12% and the Activity (Nucleic Acid [3]) is reported as 18%. The Activity (Nucleic Acid [4]) was 16%.
